{"source": "patent US20100311757A1", "about": "“Salarins And Tulearins, Compositions And Uses Thereof” (RAMOT AT TEL-AVIV UNIVERSITY LTD., priority 2007, published 2010)", "key": {"UT7": {"test_system": "UT7", "assay": "MTT colorimetric cell proliferation assay, UT7 cells", "type": "cell-based, human", "settings": "for inhibition of cell growth, dose and time dependence: various concentrations, 24, 48 and 72 hours", "description": "(§1) The anti-cancer activities of the compounds of the invention have been determined in-vitro in human and mouse leukemia cell lines. The procedure was carried out using the colorimetric methyl thiazol tetrazoliumbromide (MTT) assay for measuring cell proliferation (Carmichael et al., (1987), Cancer Res. 47: 936-942).\n(§2) The Human leukemia cell lines K562 (Lozzio and Lozzio (1975) Blood, 45, 321-334) and UT7 (Komatsu et al. (1991), Cancer Res. 51, 341-348) were grown in RPMI 1640 and IMDM medium respectively, supplemented with 10% fetal bovine serum (FBS), 2 mM L-glutamine, 100 ug/ml streptomycin and 100 u/ml penicillin. The murine Ba/F3 cell line stably transfected with the erythropoietin receptor (EPO-R) cDNA (D'Andrea et al., (1991), Mol. Cell. Biol. 11, 1980-1987) was cultured in RPMI medium supplemented with recombinant human EPO (rHuEPO, 0.5 U/ml). UT7 cells were cultured in the presence of 2 U/ml rHuEPO. Cells were maintained at 37° C. in a 5% CO2 humidified incubator.\n(§3) Cells (4×10^3) were seeded in triplicate into 96-well, flat-bottom culture plates and grown in the presence of the compounds at different concentrations for 24, 48 and 72 hours. Untreated cells served as control. After incubation with the compound, cell growth was determined using the colorimetric methylthiazole tetrazolium bromide (MTT) assay (Mosmann (1983), J Immunol Methods 65, 55-63). Briefly, MTT was added to a final concentration of 5 μg/ml to each well and further incubated for 4 hours at 37° C. After complete solubilization of the dye by acid/alcohol (0.04 N HCl in 2-propanol), plates were read at 570 nm in an ELISA reader, reference 690 nm. Growth of cells exposed to treatment was calculated as the percent of optical density (OD) of the compound-treated cells to that of the non-treated cells."}, "[1]": {"test_system": "Ba/F3 cells expressing the EPO-R", "assay": "MTT colorimetric cell proliferation assay, Ba/F3 cells expressing EPO-R", "type": "cell-based, murine", "description": "as §1, §2, §3"}, "K562": {"test_system": "K562", "assay": "MTT colorimetric cell proliferation assay, K562 cells", "type": "cell-based, human", "description": "as §1, §2, §3"}, "[2]": {"test_system": "UT-7, K562 and Ba/F3 cell lines", "assay": "MTT colorimetric cell proliferation assay, statements across the three cell lines", "type": "cell-based, human and mouse", "description": "as §1, §2, §3"}, "[3]": {"test_system": "Ba/F3, K562 and UT7 cell lines", "assay": "Cell morphology by phase contrast microscopy", "type": "cell-based, human and mouse", "settings": "0.01 μM or 0.2 μM, over-night", "description": "Cells were viewed in phase contrast microscopy. The size bar indicates a size of 15 um.\nThe potential effects of Salarin C on cell proliferation were also tested. Human leukemic cell lines UT-7 and K562, and the murine pro B cell line Ba/F3 which stably expresses the EPO receptor (EPO-R) were used as targets. […] Salarin C at concentrations of 0.0005-0.5 μg/ml was added to the cells for 24 hours, and cell viability was determined by the MTT assay (FIG. 24B). ˜50% inhibition of cell proliferation was obtained at 0.5 μg/ml (1 μM) of Salarin C for the UT-7 cell line and at 0.05 μg/ml (0.1 μM) for the K562 cell line. […] The effect of Salarin C on cell viability was also observed by microscopy (FIG. 25)."}}, "data": [{"smiles": "CCCCCCCC(=O)OCC/C=C/C1OC1C1OC(=O)/C=C\\C=C\\C(=O)N(C(C)=O)C(=O)/C=C(/C)CCC2OC2C1OC(=O)NC(C)=O", "note": "(centres unmarked) [Salarin A]", "values": [{"measurement": "inhibition at 1 µg/mL", "setting": "UT7; Homo sapiens, UT7 cells, 1 μg/ml, 72 h of exposure", "result": 45, "unit": "%"}, {"measurement": "inhibition of cell growth, dose and time dependence", "setting": "UT7; UT7 cells", "result": "in a dose and time dependent manner"}, {"measurement": "inhibition at 0.5 µg/mL", "setting": "[1]; Mus musculus, BaF3, Ba/F3 cells expressing EPO-R, 0.5 ug/ml, 72 h of exposure", "result": 48, "unit": "%"}]}, {"smiles": "CCCCCCCC(=O)OCC/C=C/C1OC1C1OC(=O)/C=C\\C=C\\c2nc(oc2C)/C=C(/C)CCC2OC2C1OC(=O)NC(C)=O", "note": "(centres unmarked) [Salarin C]", "values": [{"measurement": "cell viability", "setting": "K562; 0.5 μg/ml (1 μM), 72 h", "result": "abolished nearly all viability"}, {"measurement": "inhibition at 0.1 µM", "setting": "K562; Homo sapiens, 0.05 μg/ml (0.1 μM), 24 hours", "result": "~50", "unit": "%"}, {"measurement": "inhibition at 1 µM", "setting": "UT7; Homo sapiens, UT7, UT-7 cells, 0.5 μg/ml (1 μM), 24 hours", "result": "~50", "unit": "%"}, {"measurement": "cell viability", "setting": "UT7; UT-7 cells, 0.5 μg/ml (1 μM), 72 h", "result": "abolished nearly all viability"}, {"measurement": "relative potency", "setting": "[2]; 0.5 μg/ml, 72 h, three tested cell lines", "result": "more potent than Salarins A and B and Tulearin A"}, {"measurement": "anti-proliferative activity, dose dependence", "setting": "[2]; 0.0005-0.5 μg/ml, 24 hours", "result": "dose-dependent"}, {"measurement": "IC50", "setting": "[2]; 24 hours, across the tested cell lines, read-out: effective concentration range (IC50)", "result": "100 to 1000", "unit": "nM"}, {"measurement": "cell viability and morphology by microscopy", "setting": "[3]", "result": "lower viability and characteristics of apoptotic cells"}, {"measurement": "proliferation", "setting": "[1]; Ba/F3 cells, 0.1 μM, 24 hours", "result": "completely arrested"}, {"measurement": "cell viability", "setting": "[1]; Ba/F3 cells, 0.5 μg/ml (1 μM), 72 h", "result": "abolished nearly all viability"}]}, {"smiles": "CCCCC/C=C/C(C)=C/C1CC(C)C/C=C/CCC(O)C(OC(N)=O)CCC(C)CC(O)C(C)C(=O)O1", "note": "(centres unmarked) [Tulearin A]", "values": [{"measurement": "inhibition at 0.5 µg/mL", "setting": "K562; Homo sapiens, 0.5 ug/ml, 72 h of exposure", "result": 62, "unit": "%"}, {"measurement": "inhibition of cell growth, dose and time dependence", "setting": "K562; various concentrations, 24, 48 and 72 hours", "result": "in a dose and time dependent manner"}, {"measurement": "inhibition at 0.5 µg/mL", "setting": "UT7; Homo sapiens, UT7 cells, 0.5 ug/ml, 72 h of exposure", "result": 35, "unit": "%"}, {"measurement": "inhibition of cell growth, dose and time dependence", "setting": "UT7; UT7 cells", "result": "in a dose and time dependent manner"}]}]}
